In ChEMBL document CHEMBL1201862, “PubChem BioAssay data set” (2004):
Calls of active or inactive are those of the source.

Experiments:
[1] = target: T1, Replicative DNA helicase DnaB (Mycobacterium tuberculosis, UniProt P9WMR3); assay: DnaB intein splicing inhibitors, dose response, biochemical, cell-free fluorescence (AID 449749); type: functional
T1 sequence (P9WMR3 whole entry): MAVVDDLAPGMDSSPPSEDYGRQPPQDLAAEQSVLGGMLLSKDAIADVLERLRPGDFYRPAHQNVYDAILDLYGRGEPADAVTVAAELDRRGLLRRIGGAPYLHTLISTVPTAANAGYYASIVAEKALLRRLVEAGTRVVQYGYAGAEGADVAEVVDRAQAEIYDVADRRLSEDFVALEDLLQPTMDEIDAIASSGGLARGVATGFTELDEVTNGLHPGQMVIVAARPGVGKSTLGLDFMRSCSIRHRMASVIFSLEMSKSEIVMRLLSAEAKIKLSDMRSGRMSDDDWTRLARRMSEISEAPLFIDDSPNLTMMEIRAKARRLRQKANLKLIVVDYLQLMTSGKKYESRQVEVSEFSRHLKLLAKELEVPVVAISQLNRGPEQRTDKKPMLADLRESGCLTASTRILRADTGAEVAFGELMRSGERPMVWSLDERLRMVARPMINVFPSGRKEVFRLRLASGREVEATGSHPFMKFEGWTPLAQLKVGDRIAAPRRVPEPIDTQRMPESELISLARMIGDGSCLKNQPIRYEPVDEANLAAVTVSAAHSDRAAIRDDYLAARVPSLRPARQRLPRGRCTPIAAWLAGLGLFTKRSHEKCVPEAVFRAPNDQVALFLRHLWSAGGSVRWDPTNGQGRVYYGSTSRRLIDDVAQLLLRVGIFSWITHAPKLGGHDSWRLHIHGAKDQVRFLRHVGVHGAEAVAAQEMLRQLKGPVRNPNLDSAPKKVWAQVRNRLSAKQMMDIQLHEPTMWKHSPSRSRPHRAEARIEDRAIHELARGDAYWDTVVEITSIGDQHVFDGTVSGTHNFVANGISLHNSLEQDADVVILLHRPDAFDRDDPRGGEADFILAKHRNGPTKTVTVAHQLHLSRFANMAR

[2] = target: T2, Protein RecA (Mycobacterium tuberculosis, UniProt P9WHJ3); assay: Fluorescence Cell-Free Homogeneous Dose Retest to Identify Inhibitors of RecA-Intein Splicing Activity. [Related pubchem assays (depositor defined):AID2097, AID2223, AID489010, AID492950]; type: functional
T2 sequence (P9WHJ3 whole entry): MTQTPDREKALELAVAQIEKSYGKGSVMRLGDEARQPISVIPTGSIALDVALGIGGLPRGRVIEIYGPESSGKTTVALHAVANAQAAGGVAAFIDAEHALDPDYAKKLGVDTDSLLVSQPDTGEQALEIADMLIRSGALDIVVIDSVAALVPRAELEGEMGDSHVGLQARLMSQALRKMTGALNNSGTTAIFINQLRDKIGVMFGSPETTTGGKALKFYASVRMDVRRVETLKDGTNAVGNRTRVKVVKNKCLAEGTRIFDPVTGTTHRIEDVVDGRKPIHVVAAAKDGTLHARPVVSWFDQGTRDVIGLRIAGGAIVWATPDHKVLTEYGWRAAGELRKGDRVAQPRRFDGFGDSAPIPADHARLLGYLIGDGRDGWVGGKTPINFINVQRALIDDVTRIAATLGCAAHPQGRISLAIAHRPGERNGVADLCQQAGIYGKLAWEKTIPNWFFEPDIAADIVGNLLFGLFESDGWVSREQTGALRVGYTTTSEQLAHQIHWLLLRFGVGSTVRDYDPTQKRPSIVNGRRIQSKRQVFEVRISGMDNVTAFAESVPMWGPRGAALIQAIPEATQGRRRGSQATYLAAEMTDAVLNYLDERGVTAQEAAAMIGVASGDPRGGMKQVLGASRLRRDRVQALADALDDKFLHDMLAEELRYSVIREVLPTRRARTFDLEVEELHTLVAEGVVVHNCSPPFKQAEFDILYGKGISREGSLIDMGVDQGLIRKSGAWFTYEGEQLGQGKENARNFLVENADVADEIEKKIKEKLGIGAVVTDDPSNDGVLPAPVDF

[3] = target: Large T antigen (Simian virus 40, UniProt P03070); type: functional, Betapolyomavirus macacae;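 also: Confirmatory-stage PubChem screen for compounds that inhibit SV40 T antigen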
[4] = test system: HEK293; assay: cells; conditions: Homo sapiens
[5] = test system: HEK293; assay: cells; conditions: Homo sapiens; remark: listed apart in the source
[6] = NIH-3T3 fibroblast cytotoxicity, dose response, cytotoxicity control, cell-based, fluorescence, Alamar Blue, secondary assay (AID 2327); type: functional;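 also: NIH-3T3 mouse fibroblasts cultured with fluconazole at 8 µg/mL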
[7] = target: Serine/threonine-protein phosphatase (Candida dubliniensis (strain CD36 / CBS 7987 / NCPF 3949 / NRRLY-17841) (Yeast), UniProt B9W6M3); assay: blockers of CaCl2-induced CDRE-lacZ signaling – S. cerevisiae, luminescence, secondary, dose response (AID 2388); type: functional, cell-based;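 also: yeast reporter cells carrying a calcineurin-responsive lacZ construct stimulated with calcium chloride; luminescent beta-galactosidase reporter signal in whole cells rather than isolated phosphatase activity; potency for inhibition where a drop in reporter signal means calcineurin blockade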
[8] = target: ATP-dependent molecular chaperone HSP82 (Candida albicans (strain WO-1) (Yeast), UniProt C4YTQ8); assay: steroid-induced GRE reporter decrease in yeast – S. cerevisiae, luminescence, Hsp90 inhibitor project, dose response (AID 2400); type: functional, cell-based;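 also: beta-galactosidase luminescence from glucocorticoid response element reporter as proxy for Hsp90 function; inhibitor potency where signal loss means Hsp90 inhibition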
[9] = fluconazole-exposed Candida albicans growth modulators – fluorescence, retest, confirmation (AID 2467); type: functional, cell-based
[10] = target: T3, Nuclear receptor subfamily 0 group B member 1 (Homo sapiens, UniProt P51843); assay: Luminescence-based cell-based high throughput dose response assay for inhibitors of the orphan nuclear receptor subfamily 0, group B, member 1 (DAX1; NR0B1). [Related pubchem assays (depositor defined):AID504766, AID504790]; type: functional
T3 sequence (P51843 whole entry): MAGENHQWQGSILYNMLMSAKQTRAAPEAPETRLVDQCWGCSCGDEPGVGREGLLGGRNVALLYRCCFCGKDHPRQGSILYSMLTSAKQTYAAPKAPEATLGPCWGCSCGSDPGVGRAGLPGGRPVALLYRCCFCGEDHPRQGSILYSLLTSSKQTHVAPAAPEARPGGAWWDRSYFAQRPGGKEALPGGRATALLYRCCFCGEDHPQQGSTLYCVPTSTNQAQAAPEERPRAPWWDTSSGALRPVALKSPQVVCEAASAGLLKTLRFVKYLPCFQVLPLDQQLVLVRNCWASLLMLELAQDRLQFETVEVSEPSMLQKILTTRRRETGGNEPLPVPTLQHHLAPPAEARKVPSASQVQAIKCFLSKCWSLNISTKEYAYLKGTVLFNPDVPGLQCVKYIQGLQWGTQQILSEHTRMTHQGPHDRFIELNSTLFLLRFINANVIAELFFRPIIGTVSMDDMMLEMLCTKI

[11] = test system: HEK293; assay: cells; type: functional, cell-based; conditions: Homo sapiens
[12] = test system: HeLa; assay: ATP-based viability loss in HeLa cells – cell-based, CellTiter-Glo luminescence, cherry-pick samples, cytotoxicity control for MITF activator project, dose response (AID 540259); type: functional; conditions: Homo sapiens
[13] = target: CAAX prenyl protease 2 (Homo sapiens, UniProt Q9Y256); assay: inhibition of Ras-converting CAAX protease Rce1 – biochemical, yeast membranes, quenched-peptide fluorescence, cherry-pick, dose response (AID 588849)
[14] = target: Trypsin (Sus scrofa, UniProt P00761); assay: trypsin protease activity blockade – biochemical, quenched peptide fluorescence, cherry-pick, selectivity assay for Rce1 protease inhibitor project, dose response (AID 488789)
[15] = target: T4, CAAX prenyl protease 2 (Saccharomyces cerevisiae S288c, UniProt Q03530); type: biochemical
T4 sequence (Q03530 whole entry): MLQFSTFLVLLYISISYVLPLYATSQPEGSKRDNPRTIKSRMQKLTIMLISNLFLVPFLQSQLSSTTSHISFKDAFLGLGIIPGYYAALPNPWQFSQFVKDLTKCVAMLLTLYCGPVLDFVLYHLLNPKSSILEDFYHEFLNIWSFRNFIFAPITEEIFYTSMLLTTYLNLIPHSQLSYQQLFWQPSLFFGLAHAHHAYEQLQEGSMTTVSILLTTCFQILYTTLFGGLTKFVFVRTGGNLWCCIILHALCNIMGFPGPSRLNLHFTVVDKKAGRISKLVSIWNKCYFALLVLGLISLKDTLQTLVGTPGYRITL

[16] = Luminescence Cell-Based Dose Confirmation HTS to Identify Activators of 5'UTR Stem-Loop Driven Alpha-Synuclein mRNA Translation in H4 Neuroglioblastoma Cells. [Related pubchem assays: 1829 (Project Summary), 1814 (Primary HTS)]; type: functional
[17] = test system: H4; assay: Luminescence Cell-Based Dose Response HTS to Identify Activators of 5'UTR Stem-Loop Driven Prion Protein mRNA Translation in H4 Neuroglioblastoma Cells. [Related pubchem assays: 1829 (Project Summary), 1814 (Primary HTS)]; type: functional; conditions: Homo sapiens
[18] = Luminescence Cell-Based Dose Response HTS to Identify Activators of Luciferase Translation or Activity in H4 […] Cells. [Related pubchem assays: 1829 (Project Summary), 1814 (Primary HTS)]; type: functional

Chain of Trypsin (P00761 whole entry): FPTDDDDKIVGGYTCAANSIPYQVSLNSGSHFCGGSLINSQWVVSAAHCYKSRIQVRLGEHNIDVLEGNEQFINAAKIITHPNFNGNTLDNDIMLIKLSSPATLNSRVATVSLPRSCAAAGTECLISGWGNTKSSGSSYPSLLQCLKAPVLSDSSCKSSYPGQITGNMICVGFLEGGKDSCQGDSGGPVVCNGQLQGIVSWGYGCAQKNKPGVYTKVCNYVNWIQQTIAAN
Chain of CAAX prenyl protease 2 (Homo sapiens, UniProt Q9Y256) (Q9Y256 whole entry): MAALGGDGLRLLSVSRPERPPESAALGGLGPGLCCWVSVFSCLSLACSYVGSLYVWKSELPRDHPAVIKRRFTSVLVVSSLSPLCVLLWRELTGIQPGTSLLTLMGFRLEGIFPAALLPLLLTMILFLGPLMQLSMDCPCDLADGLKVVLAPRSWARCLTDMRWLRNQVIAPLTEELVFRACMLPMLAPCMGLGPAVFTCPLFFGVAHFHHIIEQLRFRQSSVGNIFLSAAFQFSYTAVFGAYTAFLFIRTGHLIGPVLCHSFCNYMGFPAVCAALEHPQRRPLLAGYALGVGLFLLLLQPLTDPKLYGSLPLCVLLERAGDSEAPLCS
Chain of Serine/threonine-protein phosphatase (B9W6M3 whole entry): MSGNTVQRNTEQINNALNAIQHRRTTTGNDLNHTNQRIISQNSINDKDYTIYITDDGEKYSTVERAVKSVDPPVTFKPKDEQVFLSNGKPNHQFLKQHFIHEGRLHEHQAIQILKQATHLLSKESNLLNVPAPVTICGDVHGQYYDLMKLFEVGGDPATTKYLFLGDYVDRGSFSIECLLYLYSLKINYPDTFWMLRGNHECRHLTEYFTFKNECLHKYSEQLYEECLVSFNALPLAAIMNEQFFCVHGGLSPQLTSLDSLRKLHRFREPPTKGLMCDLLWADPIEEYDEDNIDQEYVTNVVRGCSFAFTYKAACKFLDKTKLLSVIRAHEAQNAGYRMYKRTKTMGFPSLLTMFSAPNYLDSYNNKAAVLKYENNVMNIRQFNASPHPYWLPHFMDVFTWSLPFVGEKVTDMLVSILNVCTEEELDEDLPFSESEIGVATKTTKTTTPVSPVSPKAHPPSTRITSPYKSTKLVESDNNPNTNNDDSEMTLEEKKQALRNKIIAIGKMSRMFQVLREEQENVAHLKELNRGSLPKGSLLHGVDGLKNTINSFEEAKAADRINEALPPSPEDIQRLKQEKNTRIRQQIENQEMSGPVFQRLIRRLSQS
Chain of Large T antigen (P03070 whole entry): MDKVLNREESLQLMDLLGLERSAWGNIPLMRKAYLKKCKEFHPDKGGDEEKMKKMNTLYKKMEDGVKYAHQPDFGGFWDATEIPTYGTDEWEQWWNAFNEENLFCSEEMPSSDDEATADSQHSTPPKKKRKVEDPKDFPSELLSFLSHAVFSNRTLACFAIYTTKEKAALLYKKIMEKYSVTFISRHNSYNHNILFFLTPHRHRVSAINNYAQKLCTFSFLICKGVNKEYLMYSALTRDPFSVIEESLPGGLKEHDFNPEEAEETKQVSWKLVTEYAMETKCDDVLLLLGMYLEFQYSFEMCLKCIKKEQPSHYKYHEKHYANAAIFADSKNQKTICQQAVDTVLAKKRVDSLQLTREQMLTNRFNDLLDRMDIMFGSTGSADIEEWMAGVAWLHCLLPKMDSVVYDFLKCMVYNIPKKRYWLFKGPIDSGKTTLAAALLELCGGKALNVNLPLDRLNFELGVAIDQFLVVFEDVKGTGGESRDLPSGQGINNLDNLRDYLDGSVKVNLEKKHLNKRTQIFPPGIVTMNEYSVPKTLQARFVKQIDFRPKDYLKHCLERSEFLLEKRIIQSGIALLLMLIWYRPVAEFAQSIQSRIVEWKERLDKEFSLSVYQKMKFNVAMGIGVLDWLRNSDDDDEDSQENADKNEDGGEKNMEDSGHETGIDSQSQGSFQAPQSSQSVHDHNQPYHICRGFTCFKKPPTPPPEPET
Chain of ATP-dependent molecular chaperone HSP82 (C4YTQ8 whole entry): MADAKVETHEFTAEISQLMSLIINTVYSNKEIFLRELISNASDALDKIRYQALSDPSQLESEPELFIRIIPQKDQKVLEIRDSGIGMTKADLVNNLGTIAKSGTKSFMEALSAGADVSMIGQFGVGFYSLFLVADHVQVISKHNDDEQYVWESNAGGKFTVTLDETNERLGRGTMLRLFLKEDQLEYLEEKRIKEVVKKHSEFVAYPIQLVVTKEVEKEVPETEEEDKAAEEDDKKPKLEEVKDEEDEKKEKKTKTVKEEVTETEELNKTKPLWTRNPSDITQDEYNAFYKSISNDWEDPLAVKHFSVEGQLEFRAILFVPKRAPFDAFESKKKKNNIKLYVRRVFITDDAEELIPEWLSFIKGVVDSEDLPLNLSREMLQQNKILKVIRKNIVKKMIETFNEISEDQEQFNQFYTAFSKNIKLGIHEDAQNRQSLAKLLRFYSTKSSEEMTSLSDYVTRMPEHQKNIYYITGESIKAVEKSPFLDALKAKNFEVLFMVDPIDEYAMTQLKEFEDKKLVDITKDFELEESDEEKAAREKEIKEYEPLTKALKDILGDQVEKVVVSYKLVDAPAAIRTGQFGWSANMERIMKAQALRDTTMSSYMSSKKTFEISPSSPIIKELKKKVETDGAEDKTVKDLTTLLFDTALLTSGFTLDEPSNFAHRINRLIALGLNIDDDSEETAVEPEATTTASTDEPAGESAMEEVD

SMILES: O=C(CCl)Nc1ccc(N2CCCCCC2)cc1
- AC50 [1]: 14.3 µM (active)
- EC50 [2]: 7.62 µM (active)
- IC50 [3]: 18.9 µM (active)
- EC50 [4]: > 59.7 µM (inactive)
- EC50 [5]: > 59.7 µM (inactive)

SMILES: Cc1c(OCC(=O)NCC(O)c2ccccc2)ccc2c(-c3ccccc3)cc(=O)oc12 (stereo unspecified)
- EC50 [6]: 80.8 µM (active)
- EC50 [7]: > 180 µM (inactive)
- EC50 [8]: > 160 µM (inactive)
- EC50 [9]: 0.699 µM (active)

SMILES: O=C(CNC(=O)c1cc(O)nc2ccccc12)Nc1ccc(F)c(F)c1
- IC50 [10]: > 67.5 µM (inactive)
- IC50 [11]: > 67.5 µM (inactive)

SMILES: O=c1c2ccccc2oc2cc(-c3ccc4cc[nH]c4c3)ccc12
- AC50 [12]: 53.5 µM (active)

SMILES: COc1ccc(C2C3=C(O)CC(C)(C)CC3=Nc3[nH]nc(C)c32)cc1 (stereo unspecified)
- AC50 [13]: 13.5 µM (active)
- AC50 [14]: > 100 µM (inactive)

SMILES: Cc1oc2c(CN3CCOCC3)c(O)ccc2c(=O)c1-c1ccccc1
- AC50 [15]: 11 µM (active)
- AC50 [13]: 10.3 µM (active)
- AC50 [14]: 9.64 µM (active)

SMILES: O=c1oc2cc(Cl)ccc2n1CSc1nc2ccccc2s1
- EC50 [16]: 24.1 µM (active)
- AC50 [12]: 216 µM (active)
- EC50 [17]: 50.8 µM (active)
- EC50 [18]: 24.4 µM (active)
